Source: paper PMC6582342 (Nucleic Acids Research, 2019)

Biological target: T1, TcEIF4E5 (Trypanosoma cruzi, UniProt A0A2V2VRR6)
T1 sequence (A0A2V2VRR6 1-200): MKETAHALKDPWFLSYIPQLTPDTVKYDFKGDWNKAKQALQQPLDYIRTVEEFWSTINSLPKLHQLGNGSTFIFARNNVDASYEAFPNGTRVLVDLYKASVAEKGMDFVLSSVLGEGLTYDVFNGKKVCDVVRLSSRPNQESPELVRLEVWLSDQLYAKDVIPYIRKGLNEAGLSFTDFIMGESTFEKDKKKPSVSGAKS
Assay: X-ray crystal structure
Type: binding

Compound: C[n+]1cn([C@@H]2O[C@H](COP(=O)(O)OP(=O)(O)OP(=O)(O)O)[C@@H](O)[C@H]2O)c2nc(N)[nH]c(=O)c21 [m7GTP]
- Kd: 21 ± 7 µM
